Laboratory results published in US10471063B2, “Drug combination of PDE3/PDE4 inhibitor and muscarinic receptor antagonist” (VERONA PHARMA PLC, priority 2013, dated 2019).
Where two headings read alike, the source gives them in different places. Marks after values point to notes of the source that are not given here.

Assays:
[1] = system: human isolated bronchioles (small bronchi <1 mm diameter); assay: Relaxation of small human bronchi in precision cut lung slices contracted with carbachol (EC70); format: cell-based; conditions: for IC50: Homo sapiens, relaxation of bronchioles, CCh EC70, mean±SEM, n=3, read-out: pD2 (negative logarithm of IC50) (converted)
Protocol: Precision cut lung slices (PCLSs) from 6 patients were incubated in Krebs-Henseleit solution (37° C.) aerated with O2/CO2 (95:5%). The concentration response to RPL554 and glycopyrronium, administered alone and in combination at isoeffective concentrations, was assessed at sub-maximal contraction (70% maximum, EC70) induced by carbachol (CCh). […] Drug mixture effects were analyzed by Bliss Independence theory. Values (n=3) are mean±SEM.

human isolated bronchi = assay: Duration of action on EFS (3, 10, 25 Hz)-contracted human isolated bronchi, RPL554 and glycopyrronium at EC30; format: cell-based; conditions: administered alone
Protocol: Bronchial rings from 6 patients were incubated in Krebs-Henseleit solution (37° C.) aerated with O2/CO2 (95/5%) under 0.5-1.0 g tension. The duration of action (30% maximal relaxation, EC30) of RPL554 and glycopyrronium, alone or in combination, was studied in tissue contracted with 3, 10 or 25 Hz electrical field stimulation (EFS). Bronchial tone was expressed as % of maximal response to papaverine (Emax) and the area under the curve (AUC) of the contractile response was assessed. Drug mixture effects were analyzed by Bliss Independence theory. Values (n=3) are mean±SEM.

[2] = system: human isolated bronchial preparations; assay: Inhibition of EFS (10 Hz)-induced contraction of human isolated bronchial rings; format: cell-based
Protocol: Regions of macroscopically normal lungs were taken from uninvolved areas resected from 24 subjects (11 male and 13 female, 60.1±1.6 years old) undergoing lobectomy surgery for lung cancer, but without a history of chronic airway disease.
Airways were immediately placed into oxygenated Krebs-Henseleit buffer solution (KH) (mM: NaCl 119.0, KCl 5.4, CaCl2 2.5, KH2PO4 1.2, MgSO4 1.2, NaHCO3 25.0, glucose 11.7; pH 7.4) containing the cyclooxygenase (COX) inhibitor indomethacin (5.0 μM), and transported at 4° C. from the “Regina Elena National Cancer Institute” or the “Sant' Andrea Hospital” to the Respiratory Research Laboratory in the Surgery and Medicine Faculty of “Tor Vergata University”, Rome, Italy. None of the subjects were chronically treated with theophylline, β2-agonists or glucocorticosteroids. Serum IgE levels determined on the day of surgery were in the normal range. Preoperative lung function parameters were generally normal and there were no signs of respiratory infections.
In the laboratory, airways were dissected from connective and alveolar tissues. Then, segmental bronchi were isolated and stored overnight in KH buffer solution at refrigeration temperature. […]
Human bronchi were placed in organ baths containing KH buffer solution (37° C.) medicated with indomethacin (5.0 μM), bubbled with 95% O2/5% CO2 and suspended under passive tension (0.5-1.0 g). […] Changes in isometric tension were measured with a transducer (Fort 10 WPI, Basile, Instruments, Italy) and the tissue responsiveness was assessed by acetylcholine (100 μM); when the response reached a plateau, rings were washed three times and allowed to equilibrate for 45 min. […]
Bronchial contractile tension induced by EFS was measured as a percentage of control bronchi, and polynomial curves were constructed by fitting models of biological data using nonlinear regression as described elsewhere (Motulsky and Christopoulos, 2004). […]

[3] = system: passively sensitized human isolated bronchi; assay: Contraction induced by histamine in passively sensitized human bronchi pre-incubated with RPL554; format: cell-based
Protocol: Human isolated bronchial rings were rotated overnight at room temperature in tubes containing KH buffer solution in the absence (non-sensitized control rings) or the presence of 10% vol^−1 sensitizing serum (sensitized rings) as described elsewhere (Watson et al., 1997; Rabe, 1998). Subjects suffering from atopic asthma (total IgE>250 U ml^−1 specific against common aeroallergens) during exacerbation provided signed consent for serum donation. Sera was prepared by centrifugation of whole blood and sera samples were frozen at −80° C. in […] until required.
The next morning, after removal of adhering alveolar and connective tissues, bronchial rings were transferred into an organ bath containing KH buffer (37° C.) and continuously gassed with a 95% O2/5% CO2. Tissues were pre-incubated for 30 min with RPL554 (1, 10 and 100 μM) and then followed (without washing) by the construction of concentration responses curve to histamine (10 nM-1 mM) in the presence of RPL554.
Appropriate curve-fitting to a sigmoidal model was used to calculate the effect (E), the Emax and the concentration required to cause a 50% maximal effect (EC50). The equation used was log [agonist] vs. response, Variable slope, expressed as Y=Bottom+(Top−Bottom)/{1+10^[(Log EC50−X)*HillSlope]} (Motulsky and Christopoulos, 2004; Goodman et al., 2008). E/Emax was expressed as percentage of Emax elicited by the contractile agents; EC50 values were converted to pD2 for statistical analysis (Goodman et al., 2008) and the relaxant responses were expressed as a percentage of papaverine (500 μM) induced relaxation.

[4] = system: airways obstruction induced by bombesin in guinea pigs; assay: Reversal of bombesin-induced airways obstruction (total lung resistance); format: in vivo
Protocol: (§1) Guinea pigs were anaesthetised and ventilated. Airway obstruction was induced by the intravenous administration of bombesin (2 μg/ml; 5 ml/hr). Bronchodilation was induced by the iv. administration of RPL554 alone at various doses, or in combination with sub maximal doses of atropine (2 μg/kg). […] Total lung resistance (RL) and mean arterial blood pressure were measured. Data are expressed as % reduction in airways obstruction or blood pressure.

[5] = Mean arterial blood pressure in bombesin-treated anaesthetised guinea pigs; format: in vivo; conditions: RPL554 20 μg/kg iv (combination: + 2 μg/kg atropine)
Protocol: as §1

[6] = system: human isolated bronchial rings; assay: Relaxation of human isolated bronchial rings pre-contracted with acetylcholine (EC70); synergy analysis (Bliss Independence, Berenbaum); format: cell-based
Text: In the laboratory, airways were dissected from connective and alveolar tissues. Then, segmental bronchi were isolated and stored overnight in KH buffer solution at refrigeration temperature. […] Bronchial rings were mounted on hooks in the organ baths where one hook was attached with threaded to a stationary rod and the other hook tied with thread to an isometric force displacement transducer. […] Then, concentration response curves were constructed to test individual compound RPL554 and muscarinic receptor antagonist alone; as well as RPL554 administered in combination with a muscarinic receptor antagonist in order to produce isobolar graphs as described elsewhere (Greco et al., 1995; Tallarida, 2001; Goldoni and Johansson, 2007; Boik et al., 2008; Lee, 2010). […] Goodman et al., 2008). E/Emax was expressed as percentage of Emax elicited by the contractile agents; […] The analysis of the potential synergism between RPL554 plus muscarinic receptor antagonist was measured by applying the Berenbaum method, the Bliss Independence (BI) criterion and the Loewe Additivity (LA) model through curved isoboles (Berenbaum, 1977; Greco et al., 1995; Grabovsky and Tallarida, 2004; Tallarida, 2006; Goldoni and Johansson, 2007; Tallarida and Raffa, 2010). […] Lee, 2010). The BI theory for two agents is expressed by the following equation: E(x,y)=Ex+Ey-(Ex*Ey), where E is the fractional effect, and x and y are the concentrations of two compounds in a combination experiment. If the combination effect is higher than the expected value from the above equation, the interaction is considered synergistic, while if this effect is lower, the interaction is antagonistic. […] In this study, the BI equation was characterized by X=RPL554 and Y=muscarinic receptor antagonist. […] The additive response (Eab) for each dose combination with respect to B was then calculated by insertion of B into EB=f(B). The difference between the observed relaxation response to the combination doses and the additive response was calculated and analysed using a one sample t-test and for multiple comparisons, the probability was adjusted for multiple comparisons using a Bonferroni correction. For illustrative purposes, the 1:1 dose combinations were analysed for synergy. […] Tallarida, 2001; Goldoni and Johansson, 2007; Boik et al., 2008; Lee, 2010).

In the case of `COc1cc2c(cc1OC)-c1cc(=Nc3c(C)cc(C)cc3C)n(CCNC(N)=O)c(=O)n1CC2` [RPL554, 9,10-Dimethoxy-2-(2,4,6-trimethylphenylimino)-3-(N-carbamoyl-2-aminoethyl)-3,4,6,7-tetrahydro-2H-pyrimido[6,1-a]isoquinolin-4-one], the “Effect on CCh-induced contraction” value [1] is reported as “abolished”, the IC50 [1] is reported as 1000 nM and the “Time for which the effect was detectable” value (human isolated bronchi) is reported as 4 h. The “Time of maximal relaxation” value (human isolated bronchi) was 160 ± 20 min, the Emax at 100 µM ([2]; Homo sapiens, RPL554 100 μM, 10 Hz EFS, read-out: Emax, inhibition of contractile response induced by EFS) was 91.3 ± 3.37% and the “T1/2 (offset, time to evoke half of maximal relaxation)” value ([2]; RPL554 100 μM, 10 Hz EFS) was 23.7 ± 12.3 min. For the same molecule, the “Duration of inhibition of EFS contractile response after exposure” value ([2]; after termination of drug exposure) was “at least 5 h”, the Emax at 1 µM ([3]; Homo sapiens, RPL554 1 uM, mean ± SEM, n=5) was 70.3 ± 2.7% and the Emax at 10 µM ([3]; Homo sapiens, RPL554 10 uM, mean ± SEM, n=5) was 58.1%. For the same molecule, the pD2 of histamine ([3]; RPL554 1 uM) was 4.97 ± 0.07***, the pD2 of histamine ([3]; RPL554 10 uM) was 4.98 and the “Effect on contraction induced by histamine” value ([3]; RPL554 100 μM) was “completely abolished”. The “% Reduction in airways obstruction” value ([4]; RPL554 10 μg/kg iv (combination: + atropine 2 μg/kg)) was 7.4 + 1.9%, the “% Reduction in airways obstruction” value ([4]; RPL554 20 μg/kg iv (combination: + atropine 2 μg/kg)) was 24.6 + 4.3% and the “% Reduction in airways obstruction” value ([4]; RPL554 40 μg/kg iv (combination: + atropine 2 μg/kg)) was 55.2 + 6.2%. For the same molecule, the “% Reduction in airways obstruction” value ([4]; RPL554 80 μg/kg iv (combination: + atropine 2 μg/kg)) was 65.1 + 5.3%, the “reduction in mean arterial blood pressure” value [5] was 37.3+6.7% and the Emax ([6]; acetylcholine EC70 pre-contraction, percentage of papaverine (500 μM) relaxation, mean±SD, n=5, read-out: Emax (relaxation)) was 100%. The EC50 ([6]; relaxation of acetylcholine pre-contracted bronchi, n=5, read-out: EC50 (geomean, 95% CI)) was 21200 nM.

For `CN1[C@@H]2CC[C@H]1C[C@@H](OC(=O)C(CO)c1ccccc1)C2` (some centres unmarked) [atropine, reference compound], the “reduction in airways obstruction” value ([4]; atropine 2 μg/kg alone) was 22.3 ± 4.9%, the EC50 ([6]; read-out: EC50 (geomean, 95% CI)) was 1180 nM and the Emax ([6]; read-out: Emax (relaxation)) was 66 ± 14%.

For `C[N+]1(C)CCC(OC(=O)C(O)(c2ccccc2)C2CCCC2)C1` (centres unmarked) [glycopyrronium, reference compound], the “Effect on CCh-induced contraction” value [1] was “abolished”, the IC50 [1] was 0.631 nM and the “Time for which the effect was detectable” value (human isolated bronchi) was 4 h. The “Time of maximal relaxation” value (human isolated bronchi) was 50 ± 10 min.
